Marks after values point to notes of the source that are not given here.
What was measured:
laying hens = test: Breeding test: production performance of laying hens; assay type: in vivo, Jingbai laying hens; settings: 158 days; for ADFI / EPR (%) / EW (g): 500 ppm in basal daily ration; for feed-to-egg ratio: Table 4, 500 ppm in basal daily ration
Excerpt: The test adopted a single-factor random design. 420 147-day-old Jingbai laying hens with similar body weights were selected and randomly divided into 7 treatment groups, with 3 replications per group and 20 Jingbai laying hens (half of male and female) per replication. The poultry houses and utensils were sterilized before the test. During the test period, the Jingbai laying hens were cage cultured in the same laying poultry house under the same feeding and management conditions. The basal daily ration was mainly corn-soybean meal, and no other antioxidant ingredients or growth promoters were added additionally during the entire feeding process. The test groups include a control group and test groups I-VII. The basal daily ration was fed for the control group I only, and 500 ppm of different aspartic acid derivatives were added into the basal daily ration for the test groups II-VII, as shown in Table 3. The pre-feeding period was 10 days, and the test period was 158 days. The test laying hens were free to drink water and eat feed, and were fed twice a day.
Parameter statistics: During the test period, taking each repetition as a unit, the total egg number, the egg production, and the feed intake were recorded every day, and the egg production rate (EPR), the average daily feed intake (ADFI, g/d), the egg weight (EW, g) and the feed-to-egg ratio (FER) of the laying hens during the entire test were calculated.
Calculation formulas are as follows: […]
(§1) The test data was statistically analyzed using SPSS18 software. First, a one-way analysis of variance (ANOVA) was performed on the data. If the difference between treatments is significant, Duncan's method was used for multiple comparisons, and the significance level was 0.05.

broilers = test: Breeding test: production performance of broilers; assay type: in vivo, yellow-feathered broilers; settings: for ADFI (g/d*each broiler) / ADG (g/d*each broiler) / FCR: broilers, 300 ppm in basal daily ration, 20 days; for effect on the average daily gain of the test broilers (in words): 300 ppm, compared with the control group
Excerpt: The test adopted a single-factor random design. 420 1-day-old yellow-feathered broilers with similar body weights and having an average weight of 50 g were selected and randomly divided into 7 treatment groups, with 3 replications per group and 20 yellow-feathered broilers (half of male and female) per replication. The poultry houses and utensils were sterilized before the test. During the test period, the Jingbai laying hens were cage cultured in the same laying henhouse under the same feeding and management conditions. The basal daily ration was mainly corn-soybean meal, and no other antioxidant ingredients or growth promoters were added additionally during the entire feeding process. The test groups include a control group and test groups I-VII. The basal daily ration was fed for the control group I only, and 300 ppm of different aspartic acid derivatives were added into the basal daily ration for the test groups II-VII, as shown in Table 5. The test period was 20 days. The test yellow-feathered broilers were free to drink water and eat feed, and were fed twice a day. Taking each repetition as a unit, the test broilers were weighed at the age of 21 days (where provisioning of feeds was stopped for 12 hours, but provisioning of water was not stopped), the feed consumption of the test broilers were calculated, and the average daily feed intake (ADFI, g/d*each broiler), the average daily gain (ADG, g/d*each broiler) and the feed conversion ratio (FCR) were calculated for the test broilers of each group. Calculation formulas are as follows: […]
as §1

grass carps = test: Use of aspartic acid derivatives in feeds for fish (grass carp breeding test); assay type: in vivo; settings: for effect on weight gain of grass carps (in words): 3000 ppm, compared with the control group; for Average final weight (g) / FCR / Weight gain (%): grass carps, 3000 ppm in feed, 8 weeks
Description: Test fish: The test fishes used were healthy and lively grass carp fingerlings with uniform size, which were fed in large cages for 4 weeks before being used for formal breeding test. The experimental system was a small floating cage (specification: 1.1×1.1×1.1 m^3), each small floating cage being equipped with an aeration head, providing aeration 24 h a day. Both the small floating cage and the temporary cage were placed in a 3500 m^2 pond of the test field, the depth of the pond was about 1.5 m, and the water of the pond was fully aerated in the bottom of the pond. 560 grass carps that were hungry for 1 day were randomly divided into 7 groups, with 4 replications per group and 20 grass carps per replication. By taking each replication as a unit, all of the grass carps were weighed, and then placed in 28 cages and fed with test feeds containing different test samples at the same content level.
Test feeds: The feeds for the test were self-prepared based on the formulations in Table 6, and different test samples were added at the same content level for different test groups according to Table 7, respectively.
The feed raw materials used were ground by ultrafine grinding and fed into a puffing machine produced by Jiangsu Muyang Group Co., Ltd. to make 3 mm floating puffed feed, where the mold clearing temperature was 130° C., 3% soybean oil was sprayed using an oil spraying equipment, and the obtained feed was sealed and stored in a cool place for later use.
Test management: The test adopted controlled artificial feeding, and the feeding amount was adjusted once a week. The feeding levels for all the groups (based on the initial fish weight) were exactly the same, and the grass carps were fed twice a day (7:30 and 15:00). The total feeding amount was 580 g/replication test group. The test period was 8 weeks. During the test, the water quality was regularly monitored. The water temperature during the whole breeding process was 26.88±3.08° C., DO>5.0 mg O L^−1, pH 7.8, ammonia nitrogen<0.50 mg N L^−1, nitrite nitrogen<0.05 mg N L^−1.
Parameter statistics: During the test, after the provisioning of feeds has been stopped for 1 day, fishes in each cage were weighed as a whole, and the weight gain (WG, %) and the feed conversion ratio (FCR) were calculated. Calculation formulas are as follows:
[formula] [formula] (3) Test Results

NCC(=O)NC(CC(=O)O)C(=O)O (racemic) [Compound 8, N-glycyl-DL-aspartic acid]
ADFI (laying hens): 113.01 ± 2.31 g/day
EPR (%) (laying hens): 84.86 ± 0.24^c %
EW (g) (laying hens): 54.98 ± 0.39^a g
feed-to-egg ratio (laying hens): 2.06 ± 0.03
ADFI (g/d*each broiler) (broilers): 36.05 ± 0.83^b g/d*each broiler
ADG (g/d*each broiler) (broilers): 14.48 ± 0.24^b g/d*each broiler
FCR (broilers): 2.49 ± 0.03^ab
effect on weight gain of grass carps (in words) (grass carps): significant improvement effect
Average final weight (g) (grass carps): 778.2 ± 4.3^b g
FCR (grass carps): 1.671 ± 0.008^b
Weight gain (%) (grass carps): 80.62 ± 1.46%

NCCCC(=O)NC(CC(=O)O)C(=O)O (racemic) [Compound 9, N-(4-aminobutyryl)-DL-aspartic acid]
ADFI (laying hens): 113.64 ± 2.43 g/day
EPR (%) (laying hens): 86.09 ± 0.18^b %
EW (g) (laying hens): 55.44 ± 0.37^b g
feed-to-egg ratio (laying hens): 2.05 ± 0.04
ADFI (g/d*each broiler) (broilers): 37.92 ± 0.53^c g/d*each broiler
ADG (g/d*each broiler) (broilers): 15.84 ± 0.10^b g/d*each broiler
FCR (broilers): 2.39 ± 0.04^b
Average final weight (g) (grass carps): 781.8 ± 4.4^b g
FCR (grass carps): 1.662 ± 0.008^b
Weight gain (%) (grass carps): 80.76 ± 1.52%

NCCCCCCCCCC(=O)NC(CC(=O)O)C(=O)O (racemic) [Compound 10, N-(10-aminodecanoyl)-DL-aspartic acid]
ADFI (laying hens): 119.31 ± 1.84 g/day
EPR (%) (laying hens): 85.24 ± 0.18^c %
EW (g) (laying hens): 57.45 ± 0.47^c g
feed-to-egg ratio (laying hens): 2.08 ± 0.03
ADFI (g/d*each broiler) (broilers): 34.82 ± 0.64^a g/d*each broiler
ADG (g/d*each broiler) (broilers): 14.40 ± 0.15^b g/d*each broiler
FCR (broilers): 2.42 ± 0.04^b
Average final weight (g) (grass carps): 781.0 ± 5.1^b g
FCR (grass carps): 1.653 ± 0.009^b
Weight gain (%) (grass carps): 81.58 ± 0.96%

CCOC(=O)CC(NC(N)=O)C(=O)OCC (racemic) [Compound 2, diethyl N-carbamoyl-DL-aspartate]
ADFI (laying hens): 115.19 ± 3.14 g/day
EPR (%) (laying hens): 86.28 ± 0.20^b %
EW (g) (laying hens): 55.94 ± 0.37^b g
feed-to-egg ratio (laying hens): 2.06 ± 0.04
effect on the average daily gain of the test broilers (in words) (broilers): the most significant
ADFI (g/d*each broiler) (broilers): 40.05 ± 0.81^d g/d*each broiler
ADG (g/d*each broiler) (broilers): 16.81 ± 0.68^b g/d*each broiler
FCR (broilers): 2.39 ± 0.05^b
effect on weight gain of grass carps (in words) (grass carps): significant improvement effect
Average final weight (g) (grass carps): 772.0 ± 6.3^b g
FCR (grass carps): 1.650 ± 0.008^b
Weight gain (%) (grass carps): 83.74 ± 1.53^b %

NCCCCCCCCCCCCCC(=O)NC(CC(=O)O)C(=O)O (racemic) [Compound 11, N-(14-aminomyristoyl)-DL-aspartic acid]
ADFI (laying hens): 115.13 ± 2.91 g/day
EPR (%) (laying hens): 85.24 ± 0.17^c %
EW (g) (laying hens): 55.45 ± 0.35^b g
feed-to-egg ratio (laying hens): 2.08 ± 0.04
ADFI (g/d*each broiler) (broilers): 36.70 ± 0.54^ac g/d*each broiler
ADG (g/d*each broiler) (broilers): 15.02 ± 0.13^b g/d*each broiler
FCR (broilers): 2.44 ± 0.04^b
Average final weight (g) (grass carps): 769.2 ± 4.5^ab g
FCR (grass carps): 1.671 ± 0.008^b
Weight gain (%) (grass carps): 82.32 ± 1.24%

NC(=O)NC(CC(=O)O)C(=O)O (racemic) [Compound 1, N-carbamoyl-DL-aspartic acid]
ADFI (laying hens): 113.44 ± 1.55 g/day
EPR (%) (laying hens): 85.80 ± 0.14^b %
EW (g) (laying hens): 55.49 ± 0.38^b g
feed-to-egg ratio (laying hens): 2.04 ± 0.02
effect on the average daily gain of the test broilers (in words) (broilers): the most significant
ADFI (g/d*each broiler) (broilers): 38.83 ± 0.53 g/d*each broiler
ADG (g/d*each broiler) (broilers): 16.59 ± 0.14^b g/d*each broiler
FCR (broilers): 2.34 ± 0.03^b
Average final weight (g) (grass carps): 774.5 ± 4.8^b g
FCR (grass carps): 1.650 ± 0.011^b
Weight gain (%) (grass carps): 83.19 ± 1.41^b %

Source: patent publication US12478081B2, “Application of aspartic acid derivative in preparing animal feed additive” (ANIPHA TECHNOLOGIES PTY LTD, priority 2018, dated 2025)
